{"source": "patent US8758826B2", "about": "“Cannabinoid receptor binding agents, compositions, and methods” (Wet Inc., priority 2011, dated 2014)", "origin": "cited, not measured here", "key": {"CB2": {"target": "CB2 (Homo sapiens, UniProt P34972)", "sequence (P34972 whole entry, species assumed)": "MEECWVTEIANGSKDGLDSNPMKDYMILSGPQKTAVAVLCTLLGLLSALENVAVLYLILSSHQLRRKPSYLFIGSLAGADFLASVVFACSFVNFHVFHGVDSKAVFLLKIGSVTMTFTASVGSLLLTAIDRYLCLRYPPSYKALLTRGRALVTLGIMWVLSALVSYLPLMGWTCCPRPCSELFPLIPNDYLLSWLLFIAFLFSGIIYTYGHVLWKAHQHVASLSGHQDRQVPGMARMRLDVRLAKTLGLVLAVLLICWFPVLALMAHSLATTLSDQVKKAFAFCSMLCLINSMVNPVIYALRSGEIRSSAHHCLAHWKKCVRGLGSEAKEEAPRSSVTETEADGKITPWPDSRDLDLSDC", "conditions": "higher for CB2 than CB1"}, "[1]": {"system": "rats with a partial urethral obstruction"}, "histamine-induced itch": {"system": "histamine-induced itch", "conditions": "topically applied"}, "keratinocyte": {"system": "keratinocyte", "conditions": "in vitro and in situ"}}}
{"smiles": "CCCCCc1cc(O)c2c(c1)OC(C)(C)c1ccc(C)cc1-2", "note": "[Cannabinol]", "values": [{"measurement": "Binding affinity to CB2 than to CB1", "setting": "CB2", "value": 10, "unit": "fold"}]}
{"smiles": "CCCCCCC(C)(C)c1cc(O)c([C@H]2CC(=O)[C@H]3C[C@@H]2C3(C)C)c(OC(=O)/C=C/C(=O)O)c1", "note": "[Cannabinor]", "values": [{"measurement": "Bladder emptying", "setting": "[1]", "value": "improves bladder emptying"}]}
{"smiles": "CCCCCCC(C)(C)c1cc(O)c2c(c1)OC(C)(C)[C@@H]1CC=C(CO)C[C@@H]21", "note": "[HU-210]", "values": [{"measurement": "Histamine-induced itch", "setting": "histamine-induced itch", "value": "capable of reducing histamine-induced itch"}]}
{"smiles": "Cc1c(C(=O)NN2CCCCC2)nn(-c2ccc(Cl)cc2Cl)c1-c1ccc(Cl)cc1", "note": "[SR141716]", "values": [{"measurement": "Sperm motility", "setting": "human sperm", "value": "enhance sperm motility"}]}
{"smiles": "CCCCCc1cc(O)c2c(c1)OC(C)(C)[C@@H]1CCC(C)=C[C@@H]21", "note": "[THC, Δ9-tetrahydrocannabinol]", "values": [{"measurement": "Action at CB1", "setting": "CB1", "value": "agonist"}, {"measurement": "Melanin content of the hair follicle", "setting": "hair follicle", "value": "significantly and dose-dependently suppressed"}, {"measurement": "Hair shaft elongation", "setting": "human hair follicle", "value": "dose-dependently inhibited"}, {"measurement": "Intraepithelial apoptosis and premature HF regression (catagen)", "setting": "human hair follicle", "value": "induced"}, {"measurement": "Proliferation of hair matrix keratinocytes", "setting": "human hair follicle", "value": "dose-dependently inhibited"}]}
{"smiles": "CCCCC/C=C\\C/C=C\\C/C=C\\C/C=C\\CCCC(=O)NCCO", "note": "[anandamide, N-arachidonoylethanolamide]", "values": [{"measurement": "Cell death", "setting": "keratinocyte", "value": "induces cell death"}, {"measurement": "Keratinocyte proliferation", "setting": "keratinocyte", "value": "markedly suppresses"}, {"measurement": "Hair shaft elongation", "setting": "human hair follicle", "value": "dose-dependently inhibited"}, {"measurement": "Intraepithelial apoptosis and premature HF regression (catagen)", "setting": "human hair follicle", "value": "induced"}, {"measurement": "Proliferation of hair matrix keratinocytes", "setting": "human hair follicle", "value": "dose-dependently inhibited"}]}
{"smiles": "COc1cc(/C=C/C(=O)CC(=O)/C=C/c2ccc(O)c(OC)c2)ccc1O", "note": "[curcumin]", "values": [{"measurement": "Apoptosis in melanoma cells", "setting": "melanoma cells", "value": "induce apoptosis"}, {"measurement": "Proliferation of melanoma cells", "setting": "melanoma cells", "value": "suppress proliferation"}]}
